Test results as given in PubChem BioAssay AID1963439 (Molecular Pharmacology Branch, DTP, NCI, 2024).

Test system: NCI-H196 complex spheroids with HUVEC/MSC, growth % T/C
Assay: Anticancer human tumor NCI-H196 cell line growth inhibition [Asc];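 also: spheroids exposed to compound for 7 days before measurement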;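 as to viability, T/C: 100% = DMSO vehicle control wells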
Settings: for IC50: curve of first compound; for viability, T/C: stronger effect = lower value
Method in brief: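 Spheroid model: tumor line + HUVEC + hMSC. Single agents and combinations; top conc. at/near clinical Cmax (10 microM if undetermined), half-log dilutions. DMSO stocks at 800-fold test concentration.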

[1] = second compound 0.1 µM, first compound 0.0316 µM
[2] = second compound 0.1 µM, first compound 0.1 µM
[3] = second compound 0.1 µM, first compound 0.316 µM
[4] = second compound 0.1 µM, first compound 1 µM
[5] = second compound 0.316 µM, first compound 0.0316 µM
[6] = second compound 0.316 µM, first compound 0.1 µM
[7] = second compound 0.316 µM, first compound 0.316 µM
[8] = second compound 0.316 µM, first compound 1 µM
[9] = second compound 1 µM, first compound 0.0316 µM
[10] = second compound 1 µM, first compound 0.1 µM
[11] = second compound 1 µM, first compound 0.316 µM
[12] = second compound 1 µM, first compound 1 µM
[13] = second compound 3.16 µM, first compound 0.0316 µM
[14] = second compound 3.16 µM, first compound 0.1 µM
[15] = second compound 3.16 µM, first compound 0.316 µM
[16] = second compound 3.16 µM, first compound 1 µM
[17] = second compound 10 µM, first compound 0.0316 µM
[18] = second compound 10 µM, first compound 0.1 µM
[19] = second compound 10 µM, first compound 0.316 µM
[20] = second compound 10 µM, first compound 1 µM

Compound: C#Cc1c(F)ccc2cc(O)cc(-c3ncc4c(N5CC6CCC(C5)N6)nc(OCC56CCCN5CC(F)C6)nc4c3F)c12 (stereo not given) + Cc1c(S(C)(=O)=O)c(-c2cc(F)cc(N3CCN(c4ccc(NS(=O)(=O)c5ccc(NC(CCN6CCC(C(=O)OCCCP(=O)(O)O)CC6)CSc6ccccc6)c(S(=O)(=O)C(F)(F)F)c5)cc4)CC3)c2)c(-c2ccc(Cl)cc2)n1C(C)C
- IC50 (second compound 0.1 µM): > 10 µM
- IC50 (second compound 0.316 µM): > 10 µM
- IC50 (second compound 1 µM): > 10 µM
- IC50 (second compound 3.16 µM): > 10 µM
- IC50 (second compound 10 µM): > 10 µM
- viability, T/C [1]: 92.8%
- viability, T/C [2]: 93%
- viability, T/C [3]: 98.2%
- viability, T/C [4]: 98.1%
- viability, T/C (second compound 0.1 µM, first compound 3.16 µM): 94.2%
- viability, T/C (second compound 0.1 µM, first compound 10 µM): 93.5%
- viability, T/C [5]: 98.3%
- viability, T/C [6]: 93.3%
- viability, T/C [7]: 88.8%
- viability, T/C [8]: 97.8%
- viability, T/C (second compound 0.316 µM, first compound 3.16 µM): 94.8%
- viability, T/C (second compound 0.316 µM, first compound 10 µM): 88.1%
- viability, T/C [9]: 88.9%
- viability, T/C [10]: 87.7%
- viability, T/C [11]: 90.8%
- viability, T/C [12]: 89.2%
- viability, T/C (second compound 1 µM, first compound 3.16 µM): 93.7%
- viability, T/C (second compound 1 µM, first compound 10 µM): 83.7%
- viability, T/C [13]: 84.4%
- viability, T/C [14]: 86.7%
- viability, T/C [15]: 81.3%
- viability, T/C [16]: 75.5%
- viability, T/C (second compound 3.16 µM, first compound 3.16 µM): 78.5%
- viability, T/C (second compound 3.16 µM, first compound 10 µM): 70.1%
- viability, T/C [17]: 71.8%
- viability, T/C [18]: 77.8%
- viability, T/C [19]: 82.7%
- viability, T/C [20]: 80.4%
- viability, T/C (second compound 10 µM, first compound 3.16 µM): 71.2%
- viability, T/C (second compound 10 µM, first compound 10 µM): 58%

Compound: CNC(C)C(=O)NC1CN(S(=O)(=O)c2cccc(S(=O)(=O)N3CCC4CCC(C(=O)NC(c5ccccc5)c5ccccc5)N4C(=O)C(NC(=O)C(C)NC)C3)c2)CCC2CCC(C(=O)NC(c3ccccc3)c3ccccc3)N2C1=O (stereo not given) + Cc1c(S(C)(=O)=O)c(-c2cc(F)cc(N3CCN(c4ccc(NS(=O)(=O)c5ccc(NC(CCN6CCC(C(=O)OCCCP(=O)(O)O)CC6)CSc6ccccc6)c(S(=O)(=O)C(F)(F)F)c5)cc4)CC3)c2)c(-c2ccc(Cl)cc2)n1C(C)C
- IC50 (second compound 0.1 µM): < 0.00316 µM
- IC50 (second compound 0.316 µM): < 0.00316 µM
- IC50 (second compound 1 µM): < 0.00316 µM
- IC50 (second compound 3.16 µM): < 0.00316 µM
- IC50 (second compound 10 µM): < 0.00316 µM
- viability, T/C (second compound 0.1 µM, first compound 0.00316 µM): 34.8%
- viability, T/C (second compound 0.1 µM, first compound 0.01 µM): 14.2%
- viability, T/C [1]: 3.61%
- viability, T/C [2]: 1.15%
- viability, T/C [3]: 1.37%
- viability, T/C [4]: 1.37%
- viability, T/C (second compound 0.316 µM, first compound 0.00316 µM): 34.8%
- viability, T/C (second compound 0.316 µM, first compound 0.01 µM): 13.5%
- viability, T/C [5]: 2.75%
- viability, T/C [6]: 2.2%
- viability, T/C [7]: 0.94%
- viability, T/C [8]: 0.56%
- viability, T/C (second compound 1 µM, first compound 0.00316 µM): 32.3%
- viability, T/C (second compound 1 µM, first compound 0.01 µM): 10.1%
- viability, T/C [9]: 3.17%
- viability, T/C [10]: 2.28%
- viability, T/C [11]: 1.22%
- viability, T/C [12]: 0.43%
- viability, T/C (second compound 3.16 µM, first compound 0.00316 µM): 31.1%
- viability, T/C (second compound 3.16 µM, first compound 0.01 µM): 11%
- viability, T/C [13]: 3.34%
- viability, T/C [14]: 0.68%
- viability, T/C [15]: 0.36%
- viability, T/C [16]: 0.39%
- viability, T/C (second compound 10 µM, first compound 0.00316 µM): 28.9%
- viability, T/C (second compound 10 µM, first compound 0.01 µM): 6.64%
- viability, T/C [17]: 2.27%
- viability, T/C [18]: 0.74%
- viability, T/C [19]: 0.42%
- viability, T/C [20]: 0.45%

Compound: Cc1nc(N2CCC3(CC2)COC(C)C3N)c(CO)nc1Sc1ccnc(N)c1Cl (stereo not given) + Cc1c(S(C)(=O)=O)c(-c2cc(F)cc(N3CCN(c4ccc(NS(=O)(=O)c5ccc(NC(CCN6CCC(C(=O)OCCCP(=O)(O)O)CC6)CSc6ccccc6)c(S(=O)(=O)C(F)(F)F)c5)cc4)CC3)c2)c(-c2ccc(Cl)cc2)n1C(C)C
- IC50 (second compound 0.1 µM): 1.35 µM
- IC50 (second compound 0.316 µM): 1.14 µM
- IC50 (second compound 1 µM): 1.15 µM
- IC50 (second compound 3.16 µM): 0.93 µM
- IC50 (second compound 10 µM): 1.17 µM
- viability, T/C (second compound 0.1 µM, first compound 0.00949 µM): 111%
- viability, T/C (second compound 0.1 µM, first compound 0.03 µM): 118%
- viability, T/C (second compound 0.1 µM, first compound 0.0949 µM): 96.2%
- viability, T/C (second compound 0.1 µM, first compound 0.3 µM): 87.8%
- viability, T/C (second compound 0.1 µM, first compound 0.949 µM): 60.1%
- viability, T/C (second compound 0.1 µM, first compound 3 µM): 26.3%
- viability, T/C (second compound 0.316 µM, first compound 0.00949 µM): 93.4%
- viability, T/C (second compound 0.316 µM, first compound 0.03 µM): 102%
- viability, T/C (second compound 0.316 µM, first compound 0.0949 µM): 109%
- viability, T/C (second compound 0.316 µM, first compound 0.3 µM): 93.8%
- viability, T/C (second compound 0.316 µM, first compound 0.949 µM): 55.2%
- viability, T/C (second compound 0.316 µM, first compound 3 µM): 24%
- viability, T/C (second compound 1 µM, first compound 0.00949 µM): 93.1%
- viability, T/C (second compound 1 µM, first compound 0.03 µM): 97.9%
- viability, T/C (second compound 1 µM, first compound 0.0949 µM): 98.1%
- viability, T/C (second compound 1 µM, first compound 0.3 µM): 87%
- viability, T/C (second compound 1 µM, first compound 0.949 µM): 55.4%
- viability, T/C (second compound 1 µM, first compound 3 µM): 24%
- viability, T/C (second compound 3.16 µM, first compound 0.00949 µM): 93.9%
- viability, T/C (second compound 3.16 µM, first compound 0.03 µM): 97.8%
- viability, T/C (second compound 3.16 µM, first compound 0.0949 µM): 103%
- viability, T/C (second compound 3.16 µM, first compound 0.3 µM): 84.9%
- viability, T/C (second compound 3.16 µM, first compound 0.949 µM): 49.9%
- viability, T/C (second compound 3.16 µM, first compound 3 µM): 22.9%
- viability, T/C (second compound 10 µM, first compound 0.00949 µM): 84.7%
- viability, T/C (second compound 10 µM, first compound 0.03 µM): 93.7%
- viability, T/C (second compound 10 µM, first compound 0.0949 µM): 88.5%
- viability, T/C (second compound 10 µM, first compound 0.3 µM): 78%
- viability, T/C (second compound 10 µM, first compound 0.949 µM): 55.9%
- viability, T/C (second compound 10 µM, first compound 3 µM): 24.7%
